Source: US9822131B2, “Certain chemical entities, compositions and methods” (Intellikine LLC, priority 2008, dated 2017)
Where two headings read alike, the source gives them in different places.

Columns and labels:
[1] = tested on: collagen induced developing arthritis model; test: Rat developing type II collagen induced arthritis assay; type: in vivo
Procedure: In order to study the effects of the compounds of the present invention on the autoimmune disease arthritis, a collagen induced developing arthritis model was used. Female Lewis rats were given collagen injections at day 0. Bovine type II collagen was prepared as a 4 mg/ml solution in 0.01N acetic acid. Equal volumes of collagen and Freund's incomplete adjuvant were emulsified by hand mixing until a bead of the emulsified material held its form in water. Each rodent received a 300 μl injection of the mixture at each injection time spread over three subcutaneous sites on the back.
Oral compound administration began on day 0 and continued through day 16 with vehicle (5% NMP, 85% PEG 400, 10% Solutol) or compounds of the present invention in vehicle or control (e.g. methotrexate) at 12 hour intervals daily. Rats were weighed on days 0, 3, 6, 9-17 and caliper measurements of ankles taken on days 9-17. Final body weights were taken, and then the animals were euthanized on day 17. After euthanization, blood was drawn and hind paws and knees were removed. Blood was further processed for pharmacokinetics experiments as well as an anti-type II collagen antibody ELISA assay. Hind paws were weighed and then with the knees preserved in 10% formalin. The paws and knees were subsequently processed for microcopy. Livers, spleen and thymus were also weighed. Sciatic nerves were prepared for histopathology.
Knee and ankle joints were fixed for 1-2 days and decalcified for 4-5 days. Ankle joints were cut in half longitudinally, knees were cut in half along the frontal plane. Joints were then processed, embedded, sectioned and stained with toluidine blue. Scoring of the joints was done according to the following criteria:
Percent inhibition of paw weight and AUC was calculated using the following formula: % Inhibition=A−B/A×100 A=Mean Disease Control−Mean Normal B=Mean Treated−Mean Normal

[2] = tested on: adjuvant induced arthritis model; test: Adjuvant induced arthritis assay; type: in vivo
Procedure: Isoflurane-anesthetized Lewis rats (200-250 g) were implanted with an intrathecal (IT) catheter. After a 6 d recovery period, all animals except those that appeared to have sensory or motor abnormalities (fewer than 5% of the total number) were used for experiments. For IT administration, 10 μl of drug or saline followed by 10 μl of isotonic saline was injected through the catheter.
Lewis rats were immunized at the base of the tail with 0.1 ml of complete Freund's adjuvant (CFA) on day 0 several days after catheter implantation (n=6/group). Drug (e.g. one or more compounds of the present invention or vehicle) treatment was generally started on day 8 and continued daily until day 20. Clinical signs of arthritis generally begin on day 10, and paw swelling was determined every second day by water displacement plethysmometry.

[3] = tested on: established type II collagen induced arthritis; test: Rat established type II collagen induced arthritis assay; type: in vivo; conditions: oral
Procedure: In order to examine the dose responsive efficacy of the compounds of the present invention in inhibiting the inflammation, cartilage destruction and bone resorption of 7 day established type II collagen induced arthritis in rats, compounds were administered orally daily or twice daily for 6 days.
Female Lewis rats were anesthetized and given collagen injections prepared and administered as described previously on day 0. On day 6, animals were anesthetized and given a second collagen injection. Caliper measurements of normal (pre-disease) right and left ankle joints were performed on day 9. On days 10-11, arthritis typically occurred and rats were randomized into treatment groups. Randomization was performed after ankle joint swelling was obviously established and there was good evidence of bilateral disease.
After an animal was selected for enrollment in the study, treatment was initiated by the oral route. Animals were given vehicle, control (Enbrel) or compound doses, twice daily or once daily (BID or QD respectively). Dosing was administered on days 1-6 using a volume of 2.5 ml/kg (BID) or 5 ml/kg (QD) for oral solutions. Rats were weighed on days 1-7 following establishment of arthritis and caliper measurements of ankles taken every day. Final body weights were taken on day 7 and animals were euthanized.

basophilic granulocytes = test: Basotest assay; type: cell-based; conditions: heparinized whole blood, dust mite or grass extract allergen
Procedure: The baseotest assay is performed using Orpegen Pharma Basotest reagent kit. Heparinized whole blood is pre-incubated with test compound or solvent at 37 C for 20 min. Blood is then incubated with assay kit stimulation buffer (to prime cells for response) followed by allergen (dust mite extract or grass extract) for 20 min. The degranulation process is stopped by incubating the blood samples on ice. The cells are then labeled with anti-IgE-PE to detect basophilic granulocytes, and anti-gp53-FITC to detect gp53 (a glycoprotein expressed on activated basophils). After staining red blood cells are lysed by addition of Lysing Solution. Cells are washed, and analyzed by flow cytometry.

Balb/c splenic B cells = test: B cell activation and proliferation assay (Alamar Blue); type: cell-based; conditions: Mus musculus
PI3K β = target: T1, PI3K β (Homo sapiens, UniProt P42338); test: PI3K β in vitro kinase inhibition assay; type: biochemical
T1 construct: purchased Upstate
T1 sequence (P42338 whole entry): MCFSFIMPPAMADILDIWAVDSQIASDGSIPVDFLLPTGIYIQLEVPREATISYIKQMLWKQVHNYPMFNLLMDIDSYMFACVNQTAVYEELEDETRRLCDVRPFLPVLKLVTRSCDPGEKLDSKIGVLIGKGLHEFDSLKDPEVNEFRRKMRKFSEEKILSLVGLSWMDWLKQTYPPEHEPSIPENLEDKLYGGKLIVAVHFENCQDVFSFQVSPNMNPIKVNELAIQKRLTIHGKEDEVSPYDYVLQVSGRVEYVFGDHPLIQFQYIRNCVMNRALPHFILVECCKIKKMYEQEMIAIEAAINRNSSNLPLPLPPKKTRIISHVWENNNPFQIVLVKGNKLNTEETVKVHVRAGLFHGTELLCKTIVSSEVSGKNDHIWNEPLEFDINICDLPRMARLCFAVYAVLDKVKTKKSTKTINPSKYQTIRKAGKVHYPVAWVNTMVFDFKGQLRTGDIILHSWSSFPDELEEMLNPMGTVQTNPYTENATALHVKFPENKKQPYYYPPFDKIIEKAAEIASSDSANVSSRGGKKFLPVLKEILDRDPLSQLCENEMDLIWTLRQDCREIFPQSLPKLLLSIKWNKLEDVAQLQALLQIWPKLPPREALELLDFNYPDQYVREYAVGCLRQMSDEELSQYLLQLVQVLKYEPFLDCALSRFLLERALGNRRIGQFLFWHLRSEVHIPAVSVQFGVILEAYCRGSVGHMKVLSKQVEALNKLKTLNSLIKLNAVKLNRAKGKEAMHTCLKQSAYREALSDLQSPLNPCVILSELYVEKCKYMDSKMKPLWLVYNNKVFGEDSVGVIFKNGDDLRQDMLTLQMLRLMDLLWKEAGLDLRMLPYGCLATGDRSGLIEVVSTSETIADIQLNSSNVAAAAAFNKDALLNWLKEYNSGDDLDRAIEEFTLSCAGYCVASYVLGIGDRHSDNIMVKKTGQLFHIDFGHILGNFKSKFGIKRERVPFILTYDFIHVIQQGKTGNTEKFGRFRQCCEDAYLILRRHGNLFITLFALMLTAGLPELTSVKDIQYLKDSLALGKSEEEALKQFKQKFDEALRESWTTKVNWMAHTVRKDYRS
T1 sequence (P27986 whole entry partner): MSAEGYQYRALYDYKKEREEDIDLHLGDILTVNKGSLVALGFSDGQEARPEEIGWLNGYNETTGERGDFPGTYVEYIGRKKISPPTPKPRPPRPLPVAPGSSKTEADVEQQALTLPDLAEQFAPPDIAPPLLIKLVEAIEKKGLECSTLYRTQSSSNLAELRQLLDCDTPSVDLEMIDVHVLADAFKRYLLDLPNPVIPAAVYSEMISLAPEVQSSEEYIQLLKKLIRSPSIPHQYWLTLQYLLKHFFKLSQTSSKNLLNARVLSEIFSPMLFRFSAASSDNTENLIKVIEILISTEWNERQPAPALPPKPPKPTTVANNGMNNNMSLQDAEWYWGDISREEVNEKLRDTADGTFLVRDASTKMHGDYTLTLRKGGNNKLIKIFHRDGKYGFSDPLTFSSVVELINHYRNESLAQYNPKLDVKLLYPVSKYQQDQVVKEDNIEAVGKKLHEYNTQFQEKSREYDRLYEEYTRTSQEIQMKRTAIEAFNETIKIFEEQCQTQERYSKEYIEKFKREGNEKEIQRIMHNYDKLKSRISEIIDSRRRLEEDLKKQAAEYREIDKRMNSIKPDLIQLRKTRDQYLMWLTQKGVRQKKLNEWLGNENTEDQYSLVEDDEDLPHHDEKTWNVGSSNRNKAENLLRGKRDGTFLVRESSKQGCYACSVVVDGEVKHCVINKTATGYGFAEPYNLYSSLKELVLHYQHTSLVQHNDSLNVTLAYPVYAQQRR
Procedure: (§1) IC50 values are measured using either a standard TLC assay for lipid kinase activity (described below) or a high-throughput membrane capture assay. Kinase reactions are performed by preparing a reaction mixture containing kinase, inhibitor (2% DMSO final concentration), buffer (25 mM HEPES, pH 7.4, 10 mM MgCl2), and freshly sonicated phosphatidylinositol (100 μg/ml). Reactions are initiated by the addition of ATP containing 10 μCi of γ-32P-ATP to a final concentration 10 or 100 μM and allowed to proceed for 5 minutes at room temperature. For TLC analysis, reactions are then terminated by the addition of 105 μl 1N HCl followed by 160 μl CHCl3:MeOH (1:1). The biphasic mixture is vortexed, briefly centrifuged, and the organic phase is transferred to a new tube using a gel loading pipette tip precoated with CHCl3. This extract is spotted on TLC plates and developed for 3-4 hours in a 65:35 solution of n-propanol:1M acetic acid. The TLC plates are then dried, exposed to a phosphorimager screen (Storm, Amersham), and quantitated.
(§2) Briefly, the assay is a time resolved FRET assay that indirectly measures PIP3 product formed by the activity of a PI3-K. The kinase reaction is performed in a microtiter plate (e.g., a 384 well microtiter plate). The total reaction volume is approximately 20 ul per well. In the first step, each well receives 2 ul of test compound in 20% dimethylsulphoxide resulting in a 2% DMSO final concentration. Next, approximately 14.5 ul of a kinase/PIP2 mixture (diluted in 1× reaction buffer) is added per well for a final concentration of 0.25-0.3 ug/ml kinase and 10 uM PIP2. […] To start the reaction, 3.5 ul of ATP (diluted in 1× reaction buffer) is added per well for a final concentration of 10 uM ATP. The plate is sealed and incubated for 1 hour at room temperature. The reaction is stopped by adding 5 ul of Stop Solution per well and then 5 μl of Detection Mix is added per well. The plate is sealed, incubated for 1 hour at room temperature, and then read on an appropriate plate reader. Data is analyzed and IC50s are generated using GraphPad Prism 5.

PI3K γ = target: T2, PI3K γ (Homo sapiens, UniProt P48736); test: PI3K γ in vitro kinase inhibition assay; type: biochemical
T2 construct: purchased Sigma
T2 sequence (P48736 whole entry): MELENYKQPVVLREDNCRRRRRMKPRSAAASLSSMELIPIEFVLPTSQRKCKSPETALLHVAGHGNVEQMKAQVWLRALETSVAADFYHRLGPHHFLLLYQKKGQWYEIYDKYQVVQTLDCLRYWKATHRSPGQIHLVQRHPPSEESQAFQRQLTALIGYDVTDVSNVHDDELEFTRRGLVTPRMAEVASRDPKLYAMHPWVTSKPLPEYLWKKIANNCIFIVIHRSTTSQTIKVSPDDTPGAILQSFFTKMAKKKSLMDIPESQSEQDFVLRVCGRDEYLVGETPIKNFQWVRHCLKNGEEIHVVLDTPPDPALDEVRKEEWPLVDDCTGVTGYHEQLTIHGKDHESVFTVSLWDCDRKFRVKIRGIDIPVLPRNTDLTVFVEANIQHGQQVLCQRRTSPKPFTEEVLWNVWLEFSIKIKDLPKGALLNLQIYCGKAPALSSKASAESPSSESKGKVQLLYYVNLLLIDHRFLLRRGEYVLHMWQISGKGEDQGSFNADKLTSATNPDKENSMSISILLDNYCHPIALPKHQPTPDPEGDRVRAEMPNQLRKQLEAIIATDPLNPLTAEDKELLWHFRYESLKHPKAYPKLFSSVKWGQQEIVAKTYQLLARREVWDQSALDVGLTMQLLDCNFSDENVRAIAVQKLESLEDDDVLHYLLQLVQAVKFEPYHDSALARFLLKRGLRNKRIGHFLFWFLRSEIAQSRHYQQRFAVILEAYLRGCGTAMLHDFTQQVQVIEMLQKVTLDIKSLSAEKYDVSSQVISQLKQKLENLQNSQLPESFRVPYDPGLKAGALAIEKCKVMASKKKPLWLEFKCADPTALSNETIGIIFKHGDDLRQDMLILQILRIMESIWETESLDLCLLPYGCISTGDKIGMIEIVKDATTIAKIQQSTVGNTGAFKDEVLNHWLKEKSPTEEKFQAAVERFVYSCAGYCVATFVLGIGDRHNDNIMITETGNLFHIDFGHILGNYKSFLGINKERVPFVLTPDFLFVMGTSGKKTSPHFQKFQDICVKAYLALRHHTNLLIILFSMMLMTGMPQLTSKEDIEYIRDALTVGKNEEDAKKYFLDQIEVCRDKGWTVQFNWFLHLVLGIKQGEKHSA
Procedure: as §1, §2

PI3K δ = target: T3, PI3K δ (Homo sapiens, UniProt O00329); test: PI3K δ in vitro kinase inhibition assay; type: biochemical
T3 construct: purchased Upstate
T3 sequence (O00329 whole entry): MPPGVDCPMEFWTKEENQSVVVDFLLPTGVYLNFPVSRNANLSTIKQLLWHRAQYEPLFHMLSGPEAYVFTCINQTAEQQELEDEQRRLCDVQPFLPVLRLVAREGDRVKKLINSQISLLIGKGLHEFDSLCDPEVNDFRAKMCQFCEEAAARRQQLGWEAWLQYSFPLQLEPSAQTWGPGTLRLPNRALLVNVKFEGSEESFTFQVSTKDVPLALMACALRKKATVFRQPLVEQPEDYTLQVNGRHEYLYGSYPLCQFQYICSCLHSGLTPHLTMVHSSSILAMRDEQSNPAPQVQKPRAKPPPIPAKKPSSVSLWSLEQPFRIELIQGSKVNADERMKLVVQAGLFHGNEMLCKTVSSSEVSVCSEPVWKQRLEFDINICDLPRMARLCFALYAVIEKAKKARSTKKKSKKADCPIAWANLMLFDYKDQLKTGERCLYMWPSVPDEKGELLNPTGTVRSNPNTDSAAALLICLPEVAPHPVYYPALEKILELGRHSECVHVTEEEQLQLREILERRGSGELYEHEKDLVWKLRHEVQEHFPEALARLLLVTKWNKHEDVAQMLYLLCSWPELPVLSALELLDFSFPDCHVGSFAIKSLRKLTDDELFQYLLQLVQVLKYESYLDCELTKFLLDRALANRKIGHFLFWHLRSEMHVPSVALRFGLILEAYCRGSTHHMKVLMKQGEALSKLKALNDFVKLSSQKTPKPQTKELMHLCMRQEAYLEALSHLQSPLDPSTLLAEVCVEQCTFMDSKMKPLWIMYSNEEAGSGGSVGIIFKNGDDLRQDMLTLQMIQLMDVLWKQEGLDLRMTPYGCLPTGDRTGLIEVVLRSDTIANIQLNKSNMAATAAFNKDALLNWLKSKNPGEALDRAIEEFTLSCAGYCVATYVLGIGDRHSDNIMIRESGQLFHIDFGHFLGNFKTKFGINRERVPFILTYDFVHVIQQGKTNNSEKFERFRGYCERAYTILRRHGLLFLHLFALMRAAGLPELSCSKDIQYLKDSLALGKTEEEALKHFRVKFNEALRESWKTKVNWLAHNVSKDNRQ
T3 sequence (P27986 whole entry partner): as the sequence (P27986 whole entry partner) above
Procedure: as §1, §2

PI3K α = target: T4, PI3K α (Homo sapiens, UniProt P42336); test: PI3K α in vitro kinase inhibition assay; type: biochemical
T4 construct: purchased Upstate
T4 sequence (P42336 whole entry): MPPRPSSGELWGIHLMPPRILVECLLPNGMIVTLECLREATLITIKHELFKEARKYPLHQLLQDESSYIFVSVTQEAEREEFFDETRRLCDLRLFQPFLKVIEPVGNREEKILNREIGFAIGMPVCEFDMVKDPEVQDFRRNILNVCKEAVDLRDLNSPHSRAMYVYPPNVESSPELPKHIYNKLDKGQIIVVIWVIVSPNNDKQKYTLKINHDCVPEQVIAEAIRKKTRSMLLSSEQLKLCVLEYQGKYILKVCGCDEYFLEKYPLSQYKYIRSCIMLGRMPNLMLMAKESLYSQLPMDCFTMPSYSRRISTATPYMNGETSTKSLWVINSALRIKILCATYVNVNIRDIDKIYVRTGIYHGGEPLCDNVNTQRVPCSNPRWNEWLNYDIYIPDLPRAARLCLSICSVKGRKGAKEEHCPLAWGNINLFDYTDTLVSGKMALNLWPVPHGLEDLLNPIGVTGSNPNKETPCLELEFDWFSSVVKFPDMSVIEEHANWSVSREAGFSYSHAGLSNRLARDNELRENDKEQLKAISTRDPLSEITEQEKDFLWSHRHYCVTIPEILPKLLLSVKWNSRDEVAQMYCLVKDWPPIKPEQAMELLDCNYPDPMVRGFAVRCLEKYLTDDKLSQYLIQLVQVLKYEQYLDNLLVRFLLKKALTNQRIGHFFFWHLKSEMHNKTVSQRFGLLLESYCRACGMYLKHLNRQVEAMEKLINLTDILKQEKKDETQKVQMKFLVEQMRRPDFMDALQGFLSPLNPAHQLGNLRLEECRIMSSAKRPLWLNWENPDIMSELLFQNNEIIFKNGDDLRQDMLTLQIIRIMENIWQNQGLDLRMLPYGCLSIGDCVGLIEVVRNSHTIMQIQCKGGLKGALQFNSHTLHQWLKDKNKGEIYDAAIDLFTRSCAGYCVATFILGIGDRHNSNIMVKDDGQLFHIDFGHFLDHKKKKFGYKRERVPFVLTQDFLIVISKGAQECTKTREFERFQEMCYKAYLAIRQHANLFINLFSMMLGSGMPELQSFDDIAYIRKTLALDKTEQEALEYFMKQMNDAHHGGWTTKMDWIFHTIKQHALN
T4 sequence (P27986 whole entry partner): as the sequence (P27986 whole entry partner) above
Procedure: as §1, §2

[4] = read-out: B cell proliferation EC50

| Compound | IC50 (PI3K β) | IC50 (PI3K γ) | EC50 (Balb/c splenic B cells; [4]) | IC50 (PI3K δ) | IC50 (PI3K α) | also measured |
| --- | --- | --- | --- | --- | --- | --- |
| CC(=O)Nc1nc2ccc(-c3nn(Cc4cc5cccc(C)c5c(=O)n4-c4ccccc4C)c4ncnc(N)c34)cc2s1 [#53] | – | – | – | – | – | ankle histopathology, all categories ([1]; 60 mg/kg, FIG. 4): statistically significant reduction in all categories; serum anti-type II collagen levels ([1]; 10, 20, and 60 mg/kg dosage levels, FIG. 6): significant reduction; arthritis induced ankle diameter increase over time ([1]; 10, 30, and 60 mg/kg at 12 hour intervals, oral, relative to vehicle or methotrexate control): significant reduction; knee histopathology ([1]; FIG. 5): dose dependent reduction; ankle histopathology (inflammation, pannus, cartilage damage, bone resorption) ([1]; oral, 12 hour intervals, FIG. 4): significant reduction in one or more categories; average paw volume increase ([2]; FIG. 10): dose dependent reduction; toxicity or other adverse reaction as measured by weight loss ([2]; FIG. 11, average weight over time): does not exhibit toxicity or other adverse reaction; mean ankle diameter increase over time ([3]; once daily dosage, FIG. 8): significant reduction; mean ankle diameter increase over time ([3]; twice daily dosage, FIG. 9): significant reduction |
| CC(=O)Nc1nc2ccc(-c3nn(Cc4cc5cccc(C)c5c(=O)n4-c4ccccc4C)c4ncnc(N)c34)cc2s1 [Compound 53] | – | – | – | – | – | inhibition of allergen induced activation of basophilic granulocytes (basophilic granulocytes): sub micromolar range; EC50 (Balb/c splenic B cells; read-out: B cell proliferation EC50 (nM)): < 100 nM |
| Cc1ccccc1-n1c(Cn2nc(Cl)c3c(N)ncnc32)nc2scc(C)c2c1=O [Compound 249] | > 10000 nM | < 1000 nM | < 100 nM | < 100 nM | > 10000 nM | – |
| Cc1ccccc1-n1c(Cn2nc(Br)c3c(N)ncnc32)nc2scc(C)c2c1=O [Compound 250] | > 10000 nM | < 1000 nM | < 100 nM | < 100 nM | > 10000 nM | – |
| Cc1csc2nc(Cn3nc(-c4cc(O)cc(F)c4)c4c(N)ncnc43)n(-c3ccccc3F)c(=O)c12 [Compound 258] | > 10000 nM | < 100 nM | < 100 nM | < 100 nM | > 10000 nM | – |
| Cc1csc2nc(Cn3nc(-c4ccc(F)c(O)c4)c4c(N)ncnc43)n(-c3ccccc3F)c(=O)c12 [Compound 259] | > 10000 nM | < 1000 nM | < 100 nM | < 100 nM | > 10000 nM | – |
| Cc1csc2nc(Cn3nc(C#C[C@@H](C)O)c4c(N)ncnc43)n(-c3ccccc3F)c(=O)c12 [Compound 261] | > 10000 nM | < 100 nM | < 1000 nM | < 100 nM | > 10000 nM | – |
| Cc1csc2nc(Cn3nc(-c4ccc(O)cc4)c4c(N)ncnc43)n(-c3ccccc3F)c(=O)c12 [Compound 263] | > 10000 nM | < 10000 nM | < 10000 nM | < 10000 nM | > 10000 nM | – |
| COc1ccccc1-n1c(Cn2nc(-c3cccc(O)c3)c3c(N)ncnc32)nc2scc(C)c2c1=O [Compound 275] | < 10000 nM | < 1000 nM | < 100 nM | < 100 nM | > 10000 nM | – |
| Cc1csc2nc(Cn3nc(Cl)c4c(N)ncnc43)n(-c3ccccc3C(F)(F)F)c(=O)c12 [Compound 280] | > 10000 nM | < 1000 nM | < 100 nM | < 100 nM | > 10000 nM | – |
| Cc1csc2nc(Cn3nc(-c4cccc(O)c4)c4c(N)ncnc43)n(-c3ccccc3C(F)(F)F)c(=O)c12 [Compound 281] | < 10000 nM | < 100 nM | < 100 nM | < 100 nM | > 10000 nM | – |
| Cc1csc2nc(Cn3nc(C#C[C@@H](C)O)c4c(N)ncnc43)n(-c3ncccc3C(F)(F)F)c(=O)c12 [Compound 282] | < 10000 nM | < 10000 nM | < 100 nM | < 100 nM | > 10000 nM | – |
| CCc1ccccc1-n1c(Cn2nc(Br)c3c(N)ncnc32)nc2scc(C)c2c1=O [Compound 283] | < 10000 nM | < 100 nM | < 100 nM | < 100 nM | > 10000 nM | – |
| Cc1csc2nc(Cn3nc(I)c4c(N)ncnc43)n(-c3ccccc3C(C)C)c(=O)c12 [Compound 284] | < 10000 nM | < 100 nM | < 100 nM | < 100 nM | > 10000 nM | – |
| Cc1csc2nc(Cn3nc(Br)c4c(N)ncnc43)n(-c3ccccc3Cl)c(=O)c12 [Compound 286] | < 10000 nM | < 1000 nM | < 100 nM | < 100 nM | > 10000 nM | – |
| CCc1ccccc1-n1c(Cn2nc(-c3cccc(O)c3)c3c(N)ncnc32)nc2scc(C)c2c1=O [Compound 290] | < 10000 nM | < 100 nM | < 100 nM | < 100 nM | > 10000 nM | – |
| CCc1ccccc1-n1c(Cn2nc(-c3cc(O)cc(F)c3)c3c(N)ncnc32)nc2scc(C)c2c1=O [Compound 292] | < 1000 nM | < 100 nM | < 100 nM | < 100 nM | > 10000 nM | – |
| Cc1csc2nc(Cn3nc(-c4cc(O)cc(F)c4)c4c(N)ncnc43)n(-c3ccccc3Cl)c(=O)c12 [Compound 296] | < 1000 nM | > 10000 nM | < 100 nM | < 100 nM | < 10000 nM | – |
| Cc1cccnc1-n1c(Cn2nc(-c3cc(O)cc(F)c3)c3c(N)ncnc32)nc2scc(C)c2c1=O [Compound 297] | < 10000 nM | > 10000 nM | < 100 nM | < 100 nM | > 10000 nM | – |
